Results as given in patent US20260098026A1, “M4 ACTIVATORS/MODULATORS AND USES THEREOF” (Cerevel Therapeutics, LLC, priority 2022, published 2026).

What was measured:
[1] = target: T1, M3 muscarinic acetylcholine receptor (mAChR) (Homo sapiens, UniProt P20309); assay: FLIPR calcium assay (Fluo 8), M3-overexpressing CHO-K1 cells; assay type: cell-based; details: FLIPR
T1 construct: expressed in transfected cells; host or cells: CHO-K1
Method in brief: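 CHO-K1 cells overexpressing each human receptor seeded at 15,000 per well, grown overnight at 37° C., 5% CO2, then loaded with Fluo-8 for 30 min. Compounds in HBSS added and calcium response read on FLIPR; EC50 and Emax calculated per subtype.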

[2] = target: T2, M4 mAChR (Homo sapiens, UniProt P08173); assay: cAMP TR-FRET assay with forskolin, M4-overexpressing CHO-K1 cells; assay type: cell-based; details: cAMP assay
T2 construct: expressed in transfected cells; host or cells: CHO-K1
T2 sequence (P08173 1-479): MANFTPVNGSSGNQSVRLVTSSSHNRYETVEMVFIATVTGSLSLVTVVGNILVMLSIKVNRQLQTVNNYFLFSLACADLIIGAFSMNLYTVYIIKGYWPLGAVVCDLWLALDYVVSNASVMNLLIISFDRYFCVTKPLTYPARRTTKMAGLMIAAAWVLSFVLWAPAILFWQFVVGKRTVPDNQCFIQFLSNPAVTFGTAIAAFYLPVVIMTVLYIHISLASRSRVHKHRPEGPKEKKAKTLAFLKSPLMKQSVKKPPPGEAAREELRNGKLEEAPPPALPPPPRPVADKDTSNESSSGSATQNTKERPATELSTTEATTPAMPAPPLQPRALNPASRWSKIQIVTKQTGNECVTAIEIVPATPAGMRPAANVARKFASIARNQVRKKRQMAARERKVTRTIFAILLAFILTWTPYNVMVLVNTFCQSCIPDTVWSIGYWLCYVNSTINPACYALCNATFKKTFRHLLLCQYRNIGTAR
Method in brief: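 CHO-K1 cells overexpressing the receptor were stimulated with forskolin to raise cAMP, so that Gi-mediated agonist decreases could be measured. cAMP was quantified by TR-FRET competition between cellular cAMP and labelled donor for anti-cAMP antibody, giving potency and efficacy.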

T1 sequence (P20309 whole entry): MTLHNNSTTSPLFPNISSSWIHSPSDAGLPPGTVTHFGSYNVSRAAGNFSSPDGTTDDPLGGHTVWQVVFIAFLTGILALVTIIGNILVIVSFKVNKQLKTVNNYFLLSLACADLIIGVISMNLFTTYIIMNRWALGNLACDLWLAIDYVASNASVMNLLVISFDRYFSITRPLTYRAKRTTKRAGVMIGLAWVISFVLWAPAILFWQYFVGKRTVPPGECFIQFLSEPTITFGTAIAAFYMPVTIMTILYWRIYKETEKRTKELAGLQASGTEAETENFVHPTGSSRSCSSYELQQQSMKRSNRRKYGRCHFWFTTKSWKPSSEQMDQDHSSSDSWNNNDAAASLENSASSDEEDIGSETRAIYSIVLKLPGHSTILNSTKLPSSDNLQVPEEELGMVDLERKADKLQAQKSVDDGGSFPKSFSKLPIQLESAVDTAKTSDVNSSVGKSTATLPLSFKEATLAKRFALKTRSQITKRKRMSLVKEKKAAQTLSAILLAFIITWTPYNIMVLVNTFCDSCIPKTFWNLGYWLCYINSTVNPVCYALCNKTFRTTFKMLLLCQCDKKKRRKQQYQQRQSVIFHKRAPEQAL

EC50 [1] [µM]	Emax [2] [%]	Compound
> 10	50 to 79.9	CCOC(=O)N1CC2(CC[C@@H](N3CCN(c4cc(F)cnc4-c4ccn(C(F)F)n4)CC3)C2)C1 [Compound A198]
> 10	19 to 49.9	[2H]C([2H])([2H])n1ccc(-c2ncc(F)cc2N2CCN([C@@H]3CCC4(C3)CN(C(=O)OCC)C4)CC2)n1 [Compound A199]
> 10	19 to 49.9	CCOC(=O)N1CC2(CC[C@@H](N3CCN(c4cc(F)cnc4-c4ccn(C(C)(C)C)n4)CC3)C2)C1 [Compound A200]
> 10	80 to 100	CCOC(=O)N1CC2(CC[C@@H](N3CCN(c4cc(F)cnc4-c4ccc(=O)[nH]c4C)CC3)C2)C1 [Compound A201]
> 10	19 to 49.9	CCOC(=O)N1CC2(CC[C@@H](N3CCN(c4cc(F)cnc4-c4cc(C)c(=O)n(C)c4)CC3)C2)C1 [Compound A202]
> 10	19 to 49.9	CCOC(=O)N1CC2(CC[C@@H](N3CCN(c4cc(F)cnc4-c4cccn(C)c4=O)CC3)C2)C1 [Compound A203]
> 10	80 to 100	CCOC(=O)N1CC2(CC[C@@H](N3CCN(c4cc(Cl)cnc4-c4cnn(C)c4)CC3)C2)C1 [Compound A204]
> 10	80 to 100	CCOC(=O)N1CC2(CC[C@@H](N3CCN(c4cc(F)cnc4-c4cc(C)[nH]c(=O)c4)CC3)C2)C1 [Compound A205]
> 10	80 to 100	CCOC(=O)N1CC2(CC[C@@H](N3CCN(c4cc(Cl)cnc4-c4ccc(=O)n(C)c4)CC3)C2)C1 [Compound A207]
> 10	50 to 79.9	CCOC(=O)N1CC2(CC[C@@H](N3CCN(c4cc(Cl)cnc4-c4ccn(C)n4)CC3)C2)C1 [Compound A208]
> 10	80 to 100	CCOC(=O)N1CC2(CC[C@@H](N3CCN(c4cc(Cl)cnc4-c4ccn(C)c(=O)c4)CC3)C2)C1 [Compound A209]
> 10	80 to 100	CCOC(=O)N1CC2(CC[C@@H](N3CCN(c4cccnc4N4CCCCC4)CC3)C2)C1 [Compound A215]
> 10	80 to 100	CCOC(=O)N1CC2(CCC(N3CCN(c4cccnc4N4CCC(OC)CC4)CC3)C2)C1 (stereo not drawn) [Compound A216]
> 10	80 to 100	CCOC(=O)N1CC2(CCC(N3CCN(c4cccnc4N4CCC(C#N)CC4)CC3)C2)C1 (stereo not drawn) [Compound A217]
> 10	80 to 100	CCOC(=O)N1CC2(CC[C@@H](N3CCN(c4cc(F)cnc4-c4ccc(F)cn4)CC3)C2)C1 [Compound A218]
> 10	80 to 100	CCOC(=O)N1CC2(CC[C@@H](N3CCN(c4cc(Cl)cnc4-c4cnccn4)CC3)C2)C1 [Compound A221]
> 10	80 to 100	CCOC(=O)N1CC2(CC[C@@H](N3CCN(c4cc(F)cnc4-c4cnc(OC)cn4)CC3)C2)C1 [Compound A226]
> 10	80 to 100	CCOC(=O)N1CC2(CC[C@@H](N3CCN(c4cc(F)cnc4-c4ccccn4)CC3)C2)C1 [Compound A227]
> 10	80 to 100	CCOC(=O)N1CC2(CC[C@@H](N3CCN(c4cc(F)cnc4-c4ccc(C)cn4)CC3)C2)C1 [Compound A228]
> 10	80 to 100	CCOC(=O)N1CC2(CC[C@@H](N3CCN(c4cc(F)cnc4OC4CCOCC4)CC3)C2)C1 [Compound A229]
> 10	80 to 100	CCOC(=O)N1CC2(CC[C@@H](N3CCN(c4cc(F)cnc4-c4cn(C)nn4)CC3)C2)C1 [Compound A230]
> 10	50 to 79.9	CCOC(=O)N1CC2(CC[C@@H](N3CCN(c4cc(F)cnc4-c4cnc(C)cn4)CC3)C2)C1 [Compound A231]
> 10	80 to 100	CCOC(=O)N1CC2(CC[C@@H](N3CCN(c4cc(F)cnc4OC4CC5(COC5)C4)CC3)C2)C1 [Compound A233]
> 10	80 to 100	CCOC(=O)N1CC2(CC[C@@H](N3CCN(c4cc(F)cnc4-c4ccc(C#N)cn4)CC3)C2)C1 [Compound A234]
> 10	80 to 100	CCOC(=O)N1CC2(CC[C@@H](N3CCN(c4cc(F)cnc4-c4cnc(OC(F)F)cn4)CC3)C2)C1 [Compound A235]

EC50 [1] [µM]	Emax [2] [%]	Compound
> 10	50 to 79.9	CCOC(=O)N1CC2(CC[C@@H](N3CCN(c4cc(F)cnc4-c4ccc(C(F)(F)F)nn4)CC3)C2)C1 [Compound A243]
> 10	80 to 100	CCOC(=O)N1CC2(CC[C@@H](N3CCN(c4cccnc4-c4cnccn4)CC3)C2)C1 [Compound A244]
> 10	80 to 100	CCOC(=O)N1CC2(CC[C@@H](N3CCN(c4cc(Cl)cnc4-c4cccnn4)CC3)C2)C1 [Compound A245]
> 10	80 to 100	CCOC(=O)N1CC2(CC[C@@H](N3CCN(c4cc(F)cnc4-n4cc(C)nn4)CC3)C2)C1 [Compound A246]
> 10	80 to 100	CCOC(=O)N1CC2(CC[C@@H](N3CCN(c4cc(Cl)cnc4-n4cc(C)nn4)CC3)C2)C1 [Compound A247]
> 10	80 to 100	CCOC(=O)N1CC2(CC[C@@H](N3CCN(c4cc(Cl)cnc4-c4nncs4)CC3)C2)C1 [Compound A249]
> 10	80 to 100	CCOC(=O)N1CC2(CC[C@@H](N3CCN(c4cc(F)cnc4-c4cnc(C(F)(F)F)cn4)CC3)C2)C1 [Compound A250]
> 10	80 to 100	CCOC(=O)N1CC2(CC[C@@H](N3CCN(c4cc(Cl)cnc4-c4ccc(C)nn4)CC3)C2)C1 [Compound A251]
> 10	80 to 100	CCOC(=O)N1CC2(CC[C@@H](N3CCN(c4cc(Cl)cnc4-c4ccc(F)cn4)CC3)C2)C1 [Compound A252]
> 10	80 to 100	CCOC(=O)N1CC2(CC[C@@H](N3CCN(c4cc(F)cnc4-c4cnc(C(F)F)cn4)CC3)C2)C1 [Compound A253]
> 10	80 to 100	CCOC(=O)N1CC2(CC[C@@H](N3CCN(c4cc(C)cnc4-c4cnccn4)CC3)C2)C1 [Compound A255]
> 10	80 to 100	CCOC(=O)N1CC2(CC[C@@H](N3CCN(c4cc(Cl)cnc4-c4cn(C)nn4)CC3)C2)C1 [Compound A256]
> 10	50 to 79.9	CCOC(=O)N1CC2(CC[C@@H](N3CCN(c4cc(Cl)cnc4-c4cnn(C(C)C)n4)CC3)C2)C1 [Compound A258]
> 10	80 to 100	CCOC(=O)N1CC2(CC[C@@H](N3CCN(c4cc(F)cnc4-c4ccc(Cl)cn4)CC3)C2)C1 [Compound A259]
> 10	19 to 49.9	CCOC(=O)N1CC2(CC[C@@H](N3CCN(c4cc(C#N)cnc4-c4cnccn4)CC3)C2)C1 [Compound A272]
> 10	80 to 100	CCOC(=O)N1CC2(CC[C@@H](N3CCN(c4cc(F)cnc4C4CCN(C)CC4)CC3)C2)C1 [Compound A273]
> 10	80 to 100	CCOC(=O)N1CC2(CC[C@H](N3CCN(c4cc(F)cnc4C4CCOCC4)CC3)C2)C1 [Compound A274]
> 10	80 to 100	CCOC(=O)N1CC2(CC[C@@H](N3CCN(c4cc(Cl)cnc4C4CC5(COC5)C4)CC3)C2)C1 [Compound A279]
> 10	80 to 100	CCOC(=O)N1CC2(CC[C@@H](N3CCN(c4cc(F)cnc4-c4ncccc4F)CC3)C2)C1 [Compound A283]
> 10	80 to 100	CCOC(=O)N1CC2(CC[C@@H](N3CCN(c4cc(F)cnc4-c4ccnc(F)n4)CC3)C2)C1 [Compound A284]
> 10	80 to 100	CCOC(=O)N1CC2(CC[C@@H](N3CCN(c4cc(F)cnc4-c4cnn(C(F)(F)F)c4)CC3)C2)C1 [Compound A285]
> 10	19 to 49.9	CCOC(=O)N1CC2(CC[C@@H](N3CCN(c4cc(F)cnc4NC4CC5(COC5)C4)CC3)C2)C1 [Compound A288]
> 10	80 to 100	CCOC(=O)N1CC2(CC[C@@H](N3CCN(c4cc(F)cnc4-n4cnc(C)c4)CC3)C2)C1 [Compound A290]
> 10	50 to 79.9	CCOC(=O)N1CC2(CC[C@@H](N3CCN(c4cc(F)cnc4-n4ccc(C)n4)CC3)C2)C1 [Compound A291]
> 10	80 to 100	CCOC(=O)N1CC2(CC[C@H](N3CCC(c4cc(F)cnc4-c4ccc(F)cn4)CC3)C2)C1 [Compound A293]

Compound	EC50 [1] [µM]	Emax [2] [%]
CCOC(=O)N1CC2(CC[C@@H](N3CCN(c4cc(F)cnc4C4=CCN(C)CC4)CC3)C2)C1 [Compound A197]	> 10	80 to 100
